Source: patent US10368545B2, “Substituted 2-thioimidazolylcarboxamides as pesticides” (BAYER CROPSCIENCE AKTIENGESELLSCHAFT, priority 2015, dated 2019)

Assays:
[1] = log P by HPLC on reversed-phase C18 columns (OECD Guideline 117); type: physicochemical; conditions: for logP[a]: method [a]; for logP[b]: method [b]
Experimental: The log P values were determined in accordance with OECD Guideline 117 (EC Directive 92/69/EEC) by HPLC (high-performance liquid chromatography) using reversed-phase (RP) columns (C18), by the following methods:
[a] The LC-MS determination in the acidic range was carried out at pH 2.7 with 0.1% aqueous formic acid and acetonitrile (contains 0.1% formic acid) as mobile phases; linear gradient from 10% acetonitrile to 95% acetonitrile.
[b] LC-MS determination in the neutral range was carried out at pH 7.8 with 0.001 molar aqueous ammonium hydrogencarbonate solution and acetonitrile as mobile phases; linear gradient from 10% acetonitrile to 95% acetonitrile.

[2] = tested on: green peach aphid (Myzus persicae); test: Myzus persicae spray test (Chinese cabbage leaf discs); type: in vivo; conditions: application rate 500 g/ha; after 5 or 6 days; Chinese cabbage leaf discs
Experimental: Myzus persicae—Spray Test
Solvent: 78 parts by weight of acetone • • 1.5 parts by weight of dimethylformamide
(§1) Emulsifier: alkylaryl polyglycol ether
(§2) To produce a suitable active compound preparation, 1 part by weight of active compound is dissolved using the stated parts by weight of solvent and made up with water containing an emulsifier concentration of 1000 ppm until the desired concentration is attained. To produce further test concentrations, the preparation is diluted with emulsifier-containing water.
Discs of Chinese cabbage leaves (Brassica pekinensis) infested by all stages of the green peach aphid (Myzus persicae) are sprayed with an active compound preparation of the desired concentration.
After 5 or 6 days, the efficacy in % is determined. 100% means that all the aphids were killed; 0% means that no aphids were killed.

[3] = tested on: green peach aphid (Myzus persicae); test: Contrasting example: Myzus persicae spray test (MYZUPE); type: in vivo; conditions: MYZUPE, 100 g ai/ha
Experimental: Myzus persicae—Spray Test (MYZUPE)
Solvents: 78.0 parts by weight of acetone • • 1.5 parts by weight of dimethylformamide
as §1, §2
Discs of Chinese cabbage leaves (Brassica pekinensis), infested by all stages of the green peach aphid (Myzus persicae) are sprayed with an active compound preparation of the desired concentration.
After the desired period of time, the efficacy in % is determined. 100% means that all aphids were killed; 0% means that no aphids were killed.

Row | logP[a] [1] | logP[b] [1] | SMILES | efficacy (aphids killed) [2] | % efficacy ([3]; 6 dat) | % efficacy ([3]; 5 dat)
1 | 1.56 | 1.63 | CN(C(=O)c1cnc(Sc2ccccc2S(=O)(=O)N(C)C)n1C)c1cccnc1 [I-A-69] | 100% | 70% | 
2 | 1.45 | 1.52 | CN(C(=O)c1cnc(Sc2ccc(Cl)nc2)n1C)c1cccnc1 [I-A-70] | 100% | 70% | 
3 | 1.68 | 1.78 | CN(C(=O)c1cnc(Sc2ccccc2F)n1C)c1cccnc1 [I-A-71] | 100% | 70% | 
4 | 1.53 | 1.62 | CN(C(=O)c1cnc(S(=O)(=O)c2ccc(F)cc2)n1C)c1cccnc1 [I-A-82] | 90% | 90% | 
5 | 1.22 | 1.27 | CN(C(=O)c1cnc([S+]([O-])c2ccc(F)cc2)n1C)c1cccnc1 (stereo not shown) [I-A-84] | 90% | 70% | 
6 | 0.59 | 0.80 | CN(C(=O)c1cnc([S+]([O-])c2ccccn2)n1C)c1cccnc1 (stereo not shown) [I-A-86] | 90% | 90% | 
7 | 1.04 | 1.20 | CN(C(=O)c1cnc([S+]([O-])c2ccccc2)n1C)c1cccnc1 (stereo not shown) [I-A-87] | 90% | 90% | 
8 | 1.18 | 1.39 | CN(C(=O)c1cnc(Sc2ccc(F)cn2)n1C)c1cccnc1 [I-A-94] | 100% | 90% | 
9 | 1.41 | 1.39 | CN(C(=O)c1cnc([S+]([O-])c2cccc(C(F)(F)F)c2)n1C)c1ccc[n+]([O-])c1 (stereo not shown) [I-A-95] | 100% |  | 90%
10 | 1.74 | 1.80 | CN(C(=O)c1cnc([S+]([O-])c2cccc(C(F)(F)F)c2)n1C)c1cccnc1 (stereo not shown) [I-A-96] | 100% |  | 90%
11 | 0.45 | 0.48 | CN(C(=O)c1cnc([S+]([O-])c2ncccn2)n1C)c1cccnc1 (stereo not shown) [I-A-97] | 90% | 70% | 
12 | 1.58 |  | CN(C(=O)c1cnc(Sc2nccc(C(F)(F)F)n2)n1C)c1cccnc1 [I-A-100] | 90% | 90% | 
13 | 1.00 |  | Cc1ccnc(Sc2ncc(C(=O)N(C)c3cccnc3)n2C)n1 [I-A-101] | 100% | 90% | 
14 | 1.61 | 1.79 | COc1cc(OC)nc(Sc2ncc(C(=O)N(C)c3cccnc3)n2C)n1 [I-A-102] | 100% | 90% | 
15 | 0.97 |  | Cc1cnc(Sc2ncc(C(=O)N(C)c3cccnc3)n2C)nc1 [I-A-104] | 100% | 90% | 
16 | 1.20 |  | COc1ccnc(Sc2ncc(C(=O)N(C)c3cccnc3)n2C)n1 [I-A-106] | 100% | 90% | 
17 | 1.28 | 1.43 | Cc1cccc(Sc2ncc(C(=O)N(C)c3cccnc3)n2C)n1 [I-A-108] | 100% | 70% | 
18 | 0.56 | 0.85 | CN(C(=O)c1cnc(SCc2ncccn2)n1C)c1cccnc1 [I-A-112] | 100% | 90% | 
19 | 0.66 | 0.93 | CN(C(=O)c1cnc(SCc2cnccn2)n1C)c1cccnc1 [I-A-113] | 90% | 90% | 
20 | 0.16 | 1.11 | CN(C(=O)c1cnc(SCc2ccncc2)n1C)c1cccnc1 [I-A-116] | 100% | 90% | 
